{"source": "patent US20060062797A1", "about": "“Novel materials and methods for the treatment of Alzheimer's disease patients” (The Research Foundation of State University of New York at …, priority 2004, published 2006)", "key": {"[1]": {"test": "Neurotoxicity of inhibitor peptides alone in neuronal cell culture (cell count)", "format": "cell-based", "conditions": "neuronal cell culture, 48 Hour Incubation, read-out: % Survival", "procedure": "(§1) An in vitro neuronal cell culture was grown to confluence and studied by cell count as a measure of neurotoxicity. Neurotoxicity was observed following one or two days of incubation with either polymerized Aβ1-42 peptide into amyloid fibrils (ag) or free (i.e., non-polymerized) Aβ1-42 peptides (sol). (See FIG. 9)."}, "[2]": {"tested_on": "in vitro neuronal cell culture", "test": "Neurotoxicity of inhibitor peptides alone in neuronal cell culture (cell count)", "format": "cell-based", "conditions": "peptide alone", "procedure": "as §1"}, "[3]": {"tested_on": "Aβ1-42 peptide induced neurotoxicity in neuronal cell culture", "test": "Protection against Aβ1-42 peptide induced neurotoxicity in neuronal cell culture", "format": "cell-based", "conditions": "for inhibition of Aβ1-42 peptide induced neurotoxicity: 1:10 and 1:20; for reduction of Aβ1-42 neurotoxicity: added before Aβ1-42 peptides were allowed to polymerize; for amyloid plaque inhibition activity with protected termini: N- or C-terminal protected or both protected, data not shown", "procedure": "These peptides were tested in cell toxicity assays for their ability to prevent cell death (i.e., for example, by apoptotic mechanisms) induced by the Aβ1-42 peptide (SEQ ID NO:157).\nas §1\n(See FIG. 11A). […] (See FIG. 11B)."}, "Aβ1-42 peptide [4]": {"target": "T1, Aβ1-42 peptide (Homo sapiens, UniProt P05067)", "T1 sequence (P05067 672-713)": "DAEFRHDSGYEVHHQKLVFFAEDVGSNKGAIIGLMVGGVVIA", "conditions": "Soto et al. 1996, 1998; cited from earlier work"}, "Aβ1-42 peptide [5]": {"target": "T1, Aβ1-42 peptide", "test": "Fluorescence thioflavin T assay of amyloid fibrillization", "format": "biochemical", "procedure": "Amyloid fibrillization was measured by the fluorescence thioflavin T assay. Levine III, H, Methods in Enzymology 309: 274-305 (1999). The Aβ1-42 peptide was dissolved and fibrillization was followed over the course of two weeks by monitoring thioflavin T fluorescence. Hou et al., J. Am. Chem. Soc. in press (2004).\nThe effect of the inhibitor plateaus after three days and shown to be 70%±5 % effective in preventing fibrillization.\nInhibition activities were also measured by fluorescence intensity over time at the following molar ratios of Aβ1-42 peptide to SEQ ID NO:1 (I1) 1:0; 1:1; 1:5; and 1:20. (FIG. 7). […] Soto, et al., Nature Medicine 4:822-826 (1998); and Soto et al., Biochem. Biophys. Res. Comm. 226:672-680 (1996)."}, "[6]": {"target": "Aβ1-42 protein (SEQ ID NO: 157) (Homo sapiens, UniProt P05067)", "sequence (P05067 672-713)": "as above", "test": "Appearance (clearing, gel formation) of Aβ1-42 suspensions at pH 7", "format": "biochemical", "procedure": "(§2) The amyloid fibril inhibitor protein (SEQ ID NO: 1) was incubated at an equimolar ratio with ^13C-labeled Aβ1-42 peptides. During this incubation, electron microscopic images were taken over the course of two weeks in accordance with Example 6. […] In fact, suspensions of Aβ1-42 protein (SEQ ID NO: 157) prepared at pH 7 were normally cloudy and formed gels during fibril growth."}, "Aβ1-42 peptides": {"target": "Aβ1-42 peptides (Homo sapiens, UniProt P05067)", "sequence (P05067 672-713)": "as above", "test": "Electron microscopy of Aβ1-42 fibril formation in presence of inhibitor protein", "format": "biochemical", "conditions": "equimolar ratio with 13C-labeled Aβ1-42 peptides; images over two weeks", "procedure": "as §2\nFibrillized amyloid samples were prepared by incubation of aqueous solutions at an Aβ1-42 peptide concentration of approximately 0.2 mM in 1.0 mM phosphate buffer at pH 7.0 with the pH adjusted as necessary by dropwise addition of dilute NaOH or acetic acid. 0.01% NaN3 was added to inhibit bacterial and fungal growth. The solution was incubated for approximately 10 days at a temperature of 24° C., with gentle rocking (200 rpm). Aliquots of incubated solutions were taken for electron microscopic observations after 3-5 days. Amyloid fibril formation was verified by electron microscopic images of negatively stained samples.\nFor electron microscopic analysis, a 5 μL sample of the amyloid fibril was placed on a carbon coated Foamvar 200 mesh copper grid. The sample was allowed to stand for 15-30 sec and any excess solution was removed by wicking away. The samples were negatively stained with 2% (w/v) uranyl acetate. The excess was wicked away and allowed to dry. […]"}, "[7]": {"target": "Preformed amyloid fibrils comprising Aβ1-42 peptides (Homo sapiens, UniProt P05067)", "sequence (P05067 672-713)": "as above", "test": "Depolymerization of preformed amyloid fibrils (fluorescence intensity)", "format": "biochemical", "conditions": "1:20 molar ratio; for depolymerization of pre-existing Aβ1-42 fibrils (words): FIG. 8", "procedure": "Preformed amyloid fibrils comprising Aβ1-42 peptides were incubated with and without SEQ ID NO: 1 (I1) a 1:20 molar ratio."}, "GpA70-86 fibrils": {"target": "T2, GpA70-86 fibrils (Homo sapiens, UniProt P02724)", "T2 construct": "comprising a 17 amino acid peptide corresponding to amino acid residues 70-86", "test": "Glycophorin A transmembrane peptide (GpA70-86) fibril formation, solid-state NMR", "format": "biochemical", "conditions": "for ability to inhibit amyloid fibril formation: \"this assay system\" of Example 2", "procedure": "In the experiments below, magic-angle-spinning (MAS) NMR was performed at 360 and 600 MHz on Bruker Avance NMR spectrometers using 4 mm MAS rotors. The cross polarization contact time was 2 ms, two-pulse phase-modulated (TPPM) decoupling was used during the evolution and mixing periods and the dipolar-assisted rotational-resonance (DARR) mixing time was 1 sec. The proton field strength was set to the n =1 rotational resonance condition during the mixing period. Takegoshi et al., “^13C-^1H Dipolar-Driven ^13C-^13C Recoupling Without ^13C RF Irradiation In Nuclear Magnetic Resonance Of Rotating Solids” J. Chem. Phys. 118:2325-2341 (2003). DARR gives rise to off-diagonal cross peaks in the 2D NMR spectra if the ^13C . . . ^13C contacts are less than 6 A apart.\nThis experiment tested the idea that the large side chain amino acids on one sheet dovetail into the grooves formed by glycine on an opposing β-sheet using a mixture of two differently labeled pools of GpA70-86 peptide. A first set of peptides were labeled with a single ^13C isotope label at the backbone carbonyl carbon of Gly^79. A second set of peptides were ^13C -labeled at the Met^81 methyl side chain group. Computer modeling of the GpA70-86 peptide β-sandwich predicted an inter-β-sheet distance of 3-5 Å between the carbonyl ^13C of Gly^79 and the ^13CH3 of Met^81. The intra-sheet distance, however, was predicted to be ˜8-10 Å, and outside of the detection range of the NMR experiment used. Solid-state NMR techniques measured the intermolecular distance between Met^81 13C-labeled methyl side chains and the carbonyl ^13C-Gly^79 on adjacent β-sheets.\nA truncated […], that mimics Aβ1-42 protein, was incubated with a glycine-rich transmembrane peptide (i.e., similar to APP). This target peptide corresponds to glycophorin A's transmembrane domain comprising a 17 amino acid peptide corresponding to amino acid residues 70-86. Glycophorin A, as a complete protein, is not known to form amyloid-like fibrils."}, "[8]": {"conditions": "24 hours of polymerization / 24 hour incubation, FIG. 10A, 10B"}}, "note": "Like-named read-outs stand apart in the source and are kept apart here. No end group written: not given here.", "data": [{"substance": "H-LPFFD-NH2 [SEQ ID NO: 160, NH2-LPFFD-NH2, reference compound]", "values": [{"measurement": "viability at 48 h", "setting": "[1]; 10X", "value": "97.9 ± 4.2", "unit": "%"}, {"measurement": "viability at 48 h", "setting": "[1]; 20X", "value": "97.8 ± 6.6", "unit": "%"}, {"measurement": "toxicity of peptide by itself to neuronal cell culture", "setting": "[2]", "value": "not toxic by themselves"}, {"measurement": "toxicity of peptide by itself to neuronal cell culture", "setting": "[2]; listed as I6", "value": "not present"}, {"measurement": "inhibition of Aβ1-42 peptide induced neurotoxicity", "setting": "[3]; [8]", "value": "Neither SEQ ID NO: 1 or SEQ ID NO: 160 reduced neurotoxicity"}, {"measurement": "inhibition of Aβ1-42 peptide induced neurotoxicity", "setting": "[3]; 24 hours of polymerization / 24 hour incubation, FIG. 10A, 10B, listed as SEQ ID NO:160", "value": "does not inhibit"}, {"measurement": "inhibition of Aβ1-42 peptide induced neurotoxicity", "setting": "[3]; 48 hours of polymerization / 48 hour incubation, FIG. 10C, 10D, listed as SEQ ID NO:160", "value": "does not inhibit"}, {"measurement": "reduction of Aβ1-42 neurotoxicity", "setting": "[3]", "value": "Neither SEQ ID NO: 1 or SEQ ID NO: 160 reduced neurotoxicity"}, {"measurement": "reported inhibitor activity (literature)", "setting": "Aβ1-42 peptide [4]", "value": "effective inhibitor"}]}, {"substance": "H-RGTFEGKF-NH2 [SEQ ID NO: 1]", "values": [{"measurement": "inhibition of Aβ1-42 fibrillization / amyloid fibril polymerization (words)", "setting": "Aβ1-42 peptide [5]; FIG. 6, FIG. 7", "value": "inhibits amyloid fibril polymerization in a time and dose-dependent manner"}, {"measurement": "inhibition of Aβ1-42 fibrillization / amyloid fibril polymerization (words)", "setting": "Aβ1-42 peptide [5]; FIG. 6, FIG. 7, listed as SEQ ID NO:1", "value": "inhibits fibrillization"}, {"measurement": "gel formation of Aβ1-42 suspensions", "setting": "[6]; pH 7, over a two week period or longer", "value": "did not form gel compositions"}, {"measurement": "time until Aβ1-42 suspensions became clear after addition", "setting": "[6]; suspensions prepared at pH 7", "value": "less than 5 seconds"}, {"measurement": "fibrils in electron microscopic images", "setting": "Aβ1-42 peptides", "value": "no detectable fibrils"}, {"measurement": "viability at 48 h", "setting": "[1]; 10X", "value": "91.7 ± 5.6", "unit": "%"}, {"measurement": "viability at 48 h", "setting": "[1]; 20X", "value": "90.5 ± 6.4", "unit": "%"}, {"measurement": "toxicity of peptide by itself to neuronal cell culture", "setting": "[2]", "value": "not toxic by themselves"}, {"measurement": "toxicity of peptide by itself to neuronal cell culture", "setting": "[2]; listed as I1", "value": "not present"}, {"measurement": "depolymerization of pre-existing Aβ1-42 fibrils (words)", "setting": "[7]", "value": "depolymerizes pre-existing amyloid fibrils"}, {"measurement": "depolymerization of pre-existing Aβ1-42 fibrils (words)", "setting": "[7]; listed as SEQ ID NO:1", "value": "depolymerizes Aβ1-42 fibrils"}, {"measurement": "depolymerization rate and polymerization rate", "setting": "[7]; after Day 4", "value": "apparently reaches equilibrium"}, {"measurement": "depolymerization rate", "setting": "[7]; first four incubation days", "value": "apparent linear depolymerization rate"}, {"measurement": "inhibition of Aβ1-42 peptide induced neurotoxicity", "setting": "[3]; [8]", "value": "Neither SEQ ID NO: 1 or SEQ ID NO: 160 reduced neurotoxicity"}, {"measurement": "inhibition of Aβ1-42 peptide induced neurotoxicity", "setting": "[3]; 24 hours of polymerization / 24 hour incubation, FIG. 10A, 10B, listed as SEQ ID NO:1", "value": "does not inhibit"}, {"measurement": "inhibition of Aβ1-42 peptide induced neurotoxicity", "setting": "[3]; 48 hours of polymerization / 48 hour incubation, FIG. 10C, 10D", "value": "dose-dependently inhibited neurotoxicity"}, {"measurement": "inhibition of Aβ1-42 peptide induced neurotoxicity", "setting": "[3]; 48 hours of polymerization / 48 hour incubation, FIG. 10C, 10D, listed as SEQ ID NO:1", "value": "does inhibit"}, {"measurement": "amyloid plaque inhibition activity with protected termini", "setting": "[3]", "value": "retain amyloid plaque inhibition activity"}, {"measurement": "reduction of Aβ1-42 neurotoxicity", "setting": "[3]", "value": "Neither SEQ ID NO: 1 or SEQ ID NO: 160 reduced neurotoxicity"}, {"measurement": "glycophorin A transmembrane peptide fibril formation", "setting": "GpA70-86 fibrils; 1:1 molar ratio", "value": "can be blocked"}, {"measurement": "ability to inhibit amyloid fibril formation", "setting": "GpA70-86 fibrils", "value": "most effective"}, {"measurement": "NMR cross peak between Met81 and Gly79 of GpA70-86 fibrils", "setting": "GpA70-86 fibrils; equimolar amount of inhibitor, FIG. 4D", "value": "absent"}]}, {"substance": "RATFEAKF-NH2 [SEQ ID NO: 19]", "values": [{"measurement": "amyloid plaque inhibition activity with protected termini", "setting": "[3]", "value": "retain amyloid plaque inhibition activity"}, {"measurement": "ability to inhibit amyloid fibril formation", "setting": "GpA70-86 fibrils", "value": "most effective"}]}]}
